Data from PubChem BioAssay AID1963839 (Molecular Pharmacology Branch, DTP, NCI, 2024).

Tested on: 817829-284-R-J1-PDC complex spheroid viability
Assay: Anticancer human tumor 817829-284-R-J1-PDC patient-derived colon adenocarcinoma cell line growth inhibition [POLQ]
Conditions: for IC50: curve of first compound; for viability, T/C: stronger effect = lower value
Description: Multicellular complex tumor spheroid response to Polymerase (POL) inhibitors (novobiocin, ART-558, RP6685) in combination with a variety of drugs and investigational agents in selected tumor cell lines
The POL inhibitors (novobiocin, ART-558, and RP6685) were evaluated both individually and in combination with standard of care and investigational anticancer small molecules within a complex spheroid model of solid tumors. . Complex spheroids include a stromal component modeled by human endothelial cells (HUVEC) and fibroblasts modeled by human mesenchymal stem cells (MSCs). The concentration ranges selected for each drug and investigational agent were based upon clinically achievable concentrations if the clinical Cmax of the agent was known.
Compounds. The drugs and investigational agents: novobiocin (NSC847541), ART-558 (NSC835418), RP-6685 (NSC848927), peposertib (NSC802822), ceralasertib (NSC780249), elimusertib (NSC800525), camonsertib (NSC841442), AZD-1390 (NSC803789), olaparib (NSC753686), talazoparib (NSC767125), rucaparib (NSC756644), sotorasib (NSC818433), MRTX-1133 (NSC836407), SN-38 (NSC673596), topotecan (NSC609699), epotoside (NSC141540), doxorubicin (NSC123127), gemcitabine (NSC613327), 5-fluorouracil (NSC19893), paclitaxel (NSC125973), vemurafenib (NSC761431), MSA-2 (NSC828583), SN-011 (NSC837082), adavosertib (NSC754352), prexasertib (NSC758257), carboplatin (NSC241240) and oxaliplatin (NSC266046), were obtained from the National Cancer Institute (NCI) Developmental Therapeutics Program Chemical Repository (21). The FDA-approved anticancer drug set is available from the Developmental Therapeutics Program at https://dtp.cancer.gov/organization/dscb/obtaining/. […] The stock solutions were prepared in dimethyl sulfoxide (DMSO, Sigma-Aldrich, St. Louis, MO, cat. D2650), except for the platinum compounds which were prepared in saline (Quality Biological, Gaithersburg, MD, cat. 114-055-101), at 800-fold the tested concentration and stored at -70 degrees C prior to their use. All drugs and investigational agents were tested over a range starting from a high concentration at or near the clinical Cmax and decreasing in half-log increments. If the clinical Cmax for an agent had not been determined, the highest concentration tested was 10 microM, except for SN-38, which was tested at a high concentration of 1 microM.
Cell Culture. All cells were maintained in an incubator at 37 degrees C and 5% CO2 with 95% humidity. The PDC lines were cultured according to standard operating procedures established by the NCI PDMR (https://pdmr.cancer.gov). Table 3 of the manuscript, lists the cell lines along with the number of the three cell types plated to form the mct-spheroids and media for tumor cell growth. After thawing, all PDC lines, except 997537-175-T-J1-PDC and 415267-285-R-J2-PDC, were cultured in Matrigel-coated flasks prepared with a working solution of 1X Ham's F-12 nutrient mix, without supplementation (Thermo Fisher Scientific, cat. 11765054), 100 U/mL penicillin-streptomycin (Thermo Fisher Scientific, cat. 15140122), and 2.5% Matrigel (Corning Inc., Corning, NY, cat. 354248) for the first three passages. The two PDC lines 997537-175-T-J1-PDC and 415267-285-R-J2-PDC were cultured on uncoated flasks. The 857933-349-R-J2-PDC line was cultured in 6C/Colon 1B media containing advanced DMEM/F-12 (Thermo Fisher Scientific, cat. 12634028), 10 mM HEPES (Thermo Fisher Scientific, cat. 15630080), 1X GlutaMAX supplement (Thermo Fisher Scientific, cat. 35050061), 0.1 mg/mL primocin (InvivoGen, San Diego, CA, cat. ant-pm-2), 10% defined fetal bovine serum, heat inactivated (HyClone Laboratories Inc., Logan, UT, cat. SH30070.03HI), 50% L-WRN conditioned media (ATCC, cat. CRL-3276), 1.25 mM N-Acetyl-L-cysteine (Sigma-Aldrich, cat. A9165), 10 mM nicotinamide (Sigma-Aldrich, cat. N0636), 1X B-27 supplement (Thermo Fisher Scientific, cat. 17504044), 1X N-2 supplement (Thermo Fisher Scientific, cat. […]

[1] = second compound 0.0316 µM, first compound 0.00316 µM
[2] = second compound 0.0316 µM, first compound 0.01 µM
[3] = second compound 0.0316 µM, first compound 0.0316 µM
[4] = second compound 0.0316 µM, first compound 0.1 µM
[5] = second compound 0.0316 µM, first compound 0.316 µM
[6] = second compound 0.0316 µM, first compound 1 µM
[7] = second compound 0.1 µM, first compound 0.00316 µM
[8] = second compound 0.1 µM, first compound 0.01 µM
[9] = second compound 0.1 µM, first compound 0.0316 µM
[10] = second compound 0.1 µM, first compound 0.1 µM
[11] = second compound 0.1 µM, first compound 0.316 µM
[12] = second compound 0.1 µM, first compound 1 µM
[13] = second compound 0.316 µM, first compound 0.00316 µM
[14] = second compound 0.316 µM, first compound 0.01 µM
[15] = second compound 0.316 µM, first compound 0.0316 µM
[16] = second compound 0.316 µM, first compound 0.1 µM
[17] = second compound 0.316 µM, first compound 0.316 µM
[18] = second compound 0.316 µM, first compound 1 µM
[19] = second compound 1 µM, first compound 0.00316 µM
[20] = second compound 1 µM, first compound 0.01 µM
[21] = second compound 1 µM, first compound 0.0316 µM
[22] = second compound 1 µM, first compound 0.1 µM
[23] = second compound 1 µM, first compound 0.316 µM
[24] = second compound 1 µM, first compound 1 µM
[25] = second compound 3.16 µM, first compound 0.00316 µM
[26] = second compound 3.16 µM, first compound 0.01 µM
[27] = second compound 3.16 µM, first compound 0.0316 µM
[28] = second compound 3.16 µM, first compound 0.1 µM
[29] = second compound 3.16 µM, first compound 0.316 µM
[30] = second compound 3.16 µM, first compound 1 µM
[31] = second compound 10 µM, first compound 0.00316 µM
[32] = second compound 10 µM, first compound 0.01 µM
[33] = second compound 10 µM, first compound 0.0316 µM
[34] = second compound 10 µM, first compound 0.1 µM
[35] = second compound 10 µM, first compound 0.316 µM
[36] = second compound 10 µM, first compound 1 µM
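Also: spheroids exposed to compounds for 7 days.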
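For viability, T/C in this document: 100% = DMSO vehicle-treated spheroids.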

In the case of `C=CCn1c(=O)c2cnc(Nc3ccc(N4CCN(C)CC4)cc3)nc2n1-c1cccc(C(C)(C)O)n1` + COC1C(OC(N)=O)C(O)C(Oc2ccc3c(O)c(NC(=O)c4ccc(O)c(CC=C(C)C)c4)c(=O)oc3c2C)OC1(C)C, the IC50 (second compound 0.0316 µM) is reported as 161 nM, the IC50 (second compound 0.1 µM) is reported as 144 nM and the IC50 (second compound 0.316 µM) is reported as 176 nM. The IC50 (second compound 1 µM) was 190 nM, the IC50 (second compound 3.16 µM) was 176 nM and the IC50 (second compound 10 µM) was 133 nM. The viability, T/C [1] was 93%, the viability, T/C [2] was 74.8% and the viability, T/C [3] was 91.3%. The viability, T/C [4] was 58%, the viability, T/C [5] was 33.6% and the viability, T/C [6] was 7.07%. For the same compound, the viability, T/C [7] was 107%, the viability, T/C [8] was 91.4% and the viability, T/C [9] was 87.2%. For the same compound, the viability, T/C [10] was 55.5%, the viability, T/C [11] was 32.3% and the viability, T/C [12] was 6.47%. The viability, T/C [13] was 100%, the viability, T/C [14] was 96.8% and the viability, T/C [15] was 96.6%. It also gave a viability, T/C [16] of 72%, a viability, T/C [17] of 26.7% and a viability, T/C [18] of 6%. For the same compound, the viability, T/C [19] was 82.8%, the viability, T/C [20] was 95.9% and the viability, T/C [21] was 110%. For the same compound, the viability, T/C [22] was 70.6%, the viability, T/C [23] was 32.2% and the viability, T/C [24] was 7.21%. It also gave a viability, T/C [25] of 109%, a viability, T/C [26] of 107% and a viability, T/C [27] of 83%. The viability, T/C [28] was 69.7%, the viability, T/C [29] was 32.2% and the viability, T/C [30] was 7.29%. For the same compound, the viability, T/C [31] was 67.5%, the viability, T/C [32] was 96.1% and the viability, T/C [33] was 69.7%. The viability, T/C [34] was 55.2%, the viability, T/C [35] was 30.8% and the viability, T/C [36] was 8.11%.

`COc1cc(C2c3cc4c(cc3C(OC3OC5COC(C)OC5C(O)C3O)C3COC(=O)C23)OCO4)cc(OC)c1O` (stereo unspecified) + COC1C(OC(N)=O)C(O)C(Oc2ccc3c(O)c(NC(=O)c4ccc(O)c(CC=C(C)C)c4)c(=O)oc3c2C)OC1(C)C showed an IC50 (second compound 0.0316 µM) of less than 31.6 nM, an IC50 (second compound 0.1 µM) of 62.2 nM and an IC50 (second compound 0.316 µM) of 38.7 nM. The IC50 (second compound 1 µM) was 77.8 nM, the IC50 (second compound 3.16 µM) was 74.9 nM and the IC50 (second compound 10 µM) was 61.4 nM. It also gave a viability, T/C [3] of 47.9%, a viability, T/C [4] of 31.3% and a viability, T/C [5] of 16.2%. It also gave a viability, T/C [6] of 14.4%, a viability, T/C (second compound 0.0316 µM, first compound 3.16 µM) of 11.2% and a viability, T/C (second compound 0.0316 µM, first compound 10 µM) of 5.8%. It also gave a viability, T/C [9] of 74.1%, a viability, T/C [10] of 31.2% and a viability, T/C [11] of 19.5%. The viability, T/C [12] was 19.1%, the viability, T/C (second compound 0.1 µM, first compound 3.16 µM) was 11.8% and the viability, T/C (second compound 0.1 µM, first compound 10 µM) was 6.51%. For the same compound, the viability, T/C [15] was 53.6%, the viability, T/C [16] was 34.5% and the viability, T/C [17] was 15.2%. The viability, T/C [18] was 15.6%, the viability, T/C (second compound 0.316 µM, first compound 3.16 µM) was 12.6% and the viability, T/C (second compound 0.316 µM, first compound 10 µM) was 6.15%. The viability, T/C [21] was 79.2%, the viability, T/C [22] was 42.2% and the viability, T/C [23] was 15.8%. It also gave a viability, T/C [24] of 16.3%, a viability, T/C (second compound 1 µM, first compound 3.16 µM) of 11.7% and a viability, T/C (second compound 1 µM, first compound 10 µM) of 6.63%. For the same compound, the viability, T/C [27] was 83.7%, the viability, T/C [28] was 38.8% and the viability, T/C [29] was 18.1%. For the same compound, the viability, T/C [30] was 19.1%, the viability, T/C (second compound 3.16 µM, first compound 3.16 µM) was 13.6% and the viability, T/C (second compound 3.16 µM, first compound 10 µM) was 6.38%. The viability, T/C [33] was 68.8%, the viability, T/C [34] was 36.6% and the viability, T/C [35] was 17.9%. The viability, T/C [36] was 20.1%, the viability, T/C (second compound 10 µM, first compound 3.16 µM) was 11.6% and the viability, T/C (second compound 10 µM, first compound 10 µM) was 6.29%.

`COc1cccc(OCCCN)c1-c1cc(Nc2cnc(C#N)cn2)n[nH]1` + COC1C(OC(N)=O)C(O)C(Oc2ccc3c(O)c(NC(=O)c4ccc(O)c(CC=C(C)C)c4)c(=O)oc3c2C)OC1(C)C was tested, and the IC50 (second compound 0.0316 µM) was less than 3.16 nM, the IC50 (second compound 0.1 µM) was less than 3.16 nM and the IC50 (second compound 0.316 µM) was less than 3.16 nM. It also gave an IC50 (second compound 1 µM) of less than 3.16 nM, an IC50 (second compound 3.16 µM) of less than 3.16 nM and an IC50 (second compound 10 µM) of less than 3.16 nM. The viability, T/C [1] was 29.9%, the viability, T/C [2] was 8.3% and the viability, T/C [3] was 5.67%. The viability, T/C [4] was 5.85%, the viability, T/C [5] was 4.68% and the viability, T/C [6] was 3.39%. For the same compound, the viability, T/C [7] was 26%, the viability, T/C [8] was 11.2% and the viability, T/C [9] was 6.67%. For the same compound, the viability, T/C [10] was 5.76%, the viability, T/C [11] was 5.35% and the viability, T/C [12] was 3.07%. The viability, T/C [13] was 29.5%, the viability, T/C [14] was 8.79% and the viability, T/C [15] was 6.28%. The viability, T/C [16] was 5.55%, the viability, T/C [17] was 4.77% and the viability, T/C [18] was 3.42%. For the same compound, the viability, T/C [19] was 39.1%, the viability, T/C [20] was 8.54% and the viability, T/C [21] was 6.62%. It also gave a viability, T/C [22] of 4.99%, a viability, T/C [23] of 4.97% and a viability, T/C [24] of 3.65%. It also gave a viability, T/C [25] of 44.4%, a viability, T/C [26] of 8.05% and a viability, T/C [27] of 5.78%. For the same compound, the viability, T/C [28] was 4.98%, the viability, T/C [29] was 4.52% and the viability, T/C [30] was 4.11%. It also gave a viability, T/C [31] of 26.2%, a viability, T/C [32] of 8.47% and a viability, T/C [33] of 6.63%. It also gave a viability, T/C [34] of 5.63%, a viability, T/C [35] of 4.76% and a viability, T/C [36] of 4.08%.
